Assay results reported in ChEMBL document CHEMBL1156532, “Model structure of the Na+/H+ exchanger 1 (NHE1): functional and clinical implications” (J Biol Chem, 2007).

Legend:
[1] = target: T1, Na(+)/H(+) antiporter NhaA (Escherichia coli K-12, UniProt P13738, H225R); test: Antiporter activity in Escherichia coli K12 wild type EcNhaA H225R mutant assessed as effect on lithium chloride-induced pH changes by acridine orange fluorescence assay
[2] = Antiporter activity in Escherichia coli K12 wild type EcNhaA F72C mutant assessed as effect on sodium chloride-induced pH changes by acridine orange fluorescence assay
[3] = target: T1, Na(+)/H(+) antiporter NhaA; test: Antiporter activity in Escherichia coli K12 wild type EcNhaA H225R mutant assessed as effect on sodium chloride-induced pH changes by acridine orange fluorescence assay
[4] = Antiporter activity in Escherichia coli K12 wild type EcNhaA G76C mutant assessed as effect on sodium chloride-induced pH changes by acridine orange fluorescence assay
[5] = Antiporter activity in Escherichia coli K12 wild type EcNhaA F71C mutant assessed as effect on sodium chloride-induced pH changes by acridine orange fluorescence assay
[6] = target: T2, Na(+)/H(+) antiporter NhaA (Escherichia coli K-12, UniProt P13738); test: Antiporter activity in Escherichia coli K12 wild type EcNhaA assessed as effect on lithium chloride-induced pH changes by acridine orange fluorescence assay
T2 sequence (P13738 whole entry): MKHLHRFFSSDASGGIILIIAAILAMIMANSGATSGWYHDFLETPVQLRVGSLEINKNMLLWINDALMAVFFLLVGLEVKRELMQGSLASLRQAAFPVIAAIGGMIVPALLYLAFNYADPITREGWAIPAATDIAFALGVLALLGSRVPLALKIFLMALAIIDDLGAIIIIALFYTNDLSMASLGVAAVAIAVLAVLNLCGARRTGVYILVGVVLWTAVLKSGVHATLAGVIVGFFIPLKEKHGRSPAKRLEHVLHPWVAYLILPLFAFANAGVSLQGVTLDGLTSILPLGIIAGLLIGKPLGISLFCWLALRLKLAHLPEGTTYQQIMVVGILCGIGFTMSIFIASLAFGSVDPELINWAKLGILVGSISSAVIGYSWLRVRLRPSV

[7] = Antiporter activity in Escherichia coli K12 wild type EcNhaA F72C mutant assessed as effect on lithium chloride-induced pH changes by acridine orange fluorescence assay
[8] = target: Na(+)/H(+) antiporter NhaA (Escherichia coli K-12, UniProt P13738, W62C); test: Antiporter activity in Escherichia coli K12 wild type EcNhaA W62C mutant assessed as effect on sodium chloride-induced pH changes by acridine orange fluorescence assay
[9] = target: Na(+)/H(+) antiporter NhaA (Escherichia coli K-12, UniProt P13738, H225Q); test: Antiporter activity in Escherichia coli K12 wild type EcNhaA H225Q mutant assessed as effect on sodium chloride-induced pH changes by acridine orange fluorescence assay
[10] = Antiporter activity in Escherichia coli K12 wild type EcNhaA W62C mutant assessed as effect on lithium chloride-induced pH changes by acridine orange fluorescence assay
[11] = Antiporter activity in Escherichia coli K12 wild type EcNhaA H225Q mutant assessed as effect on lithium chloride-induced pH changes by acridine orange fluorescence assay
[12] = Antiporter activity in Escherichia coli K12 wild type EcNhaA N64C mutant assessed as effect on sodium chloride-induced pH changes by acridine orange fluorescence assay
[13] = target: Na(+)/H(+) antiporter NhaA (Escherichia coli K-12, UniProt P13738, F71C); test: Antiporter activity in Escherichia coli K12 wild type EcNhaA F71C mutant assessed as effect on lithium chloride-induced pH changes by acridine orange fluorescence assay
[14] = Antiporter activity in Escherichia coli K12 wild type EcNhaA N64C mutant assessed as effect on lithium chloride-induced pH changes by acridine orange fluorescence assay
[15] = Antiporter activity in Escherichia coli K12 wild type EcNhaA G76C mutant assessed as effect on lithium chloride-induced pH changes by acridine orange fluorescence assay
[16] = target: T2, Na(+)/H(+) antiporter NhaA; test: Antiporter activity in Escherichia coli K12 wild type EcNhaA assessed as effect on sodium chloride-induced pH changes by acridine orange fluorescence assay

T1 sequence (P13738 whole entry H225R): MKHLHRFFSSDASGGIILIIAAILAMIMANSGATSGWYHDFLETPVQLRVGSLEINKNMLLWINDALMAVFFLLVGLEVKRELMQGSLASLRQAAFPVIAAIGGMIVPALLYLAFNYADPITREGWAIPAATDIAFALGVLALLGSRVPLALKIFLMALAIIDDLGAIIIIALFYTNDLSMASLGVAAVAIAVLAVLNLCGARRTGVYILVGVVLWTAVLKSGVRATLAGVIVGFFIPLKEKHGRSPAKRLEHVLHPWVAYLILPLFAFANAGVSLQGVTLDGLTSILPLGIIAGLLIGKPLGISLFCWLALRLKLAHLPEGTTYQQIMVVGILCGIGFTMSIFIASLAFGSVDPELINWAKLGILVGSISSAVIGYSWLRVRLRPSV
Na(+)/H(+) antiporter NhaA (Escherichia coli K-12, UniProt P13738, W62C), sequence (P13738 whole entry W62C): as the sequence (P13738 whole entry H225R) above, with W62C, R225H counted along it
Na(+)/H(+) antiporter NhaA (Escherichia coli K-12, UniProt P13738, F71C), sequence (P13738 whole entry F71C): as the sequence (P13738 whole entry H225R) above, with F71C, R225H counted along it
Na(+)/H(+) antiporter NhaA (Escherichia coli K-12, UniProt P13738, H225Q), sequence (P13738 whole entry H225Q): as the sequence (P13738 whole entry H225R) above, with R225Q counted along it

NC1=Nc2cccc3cccc(c23)N1
IC50 [1]: 2.3 µM | IC50 [2]: 1.8 µM | IC50 [3]: 1 µM | IC50 [4]: 1.6 µM | IC50 [5]: 0.3 µM | IC50 [6]: 2.2 µM | IC50 [7]: 2.6 µM | IC50 [8]: 1.2 µM | IC50 [9]: 0.8 µM | IC50 [10]: 1.5 µM | IC50 [11]: 7.8 µM | IC50 [12]: 0.5 µM | IC50 [13]: 0.8 µM | IC50 [14]: 17 µM | IC50 [15]: 1.2 µM | IC50 [16]: 1.7 µM
